Assay results from article PMC11996864, “A small-molecule inhibitor of BCL10-MALT1 interaction abrogates progression of diffuse large B cell lymphoma” (The Journal of Clinical Investigation, 2025).
Several values for one entry are separate records, joined by “and”; a condition that tells them apart may be missing. Equal values may be shown once.

Columns and labels:
Assay type in all cases: cell-based, human
OCI-Ly1 cells = assay: Cell proliferation, trypan blue cell count; conditions: for OCI-Ly1 Viable Cells: Mepazine at 1 µM; for expansion of culture (proliferation): OCI-Ly1, single 1 μM dose, 12 days, result in words
Excerpt: (§1) Cell proliferation, viability, and apoptosis assays. Starting with ~20,000 DLBCL cells in 5% FBS
(§2) at day 0, cell number was counted using the trypan blue dye exclusion method with Vi-CELL cell

TMD8 cells [1] = assay: Cell proliferation, trypan blue cell count; conditions: for TMD8 Viable Cells: Mepazine at 1 µM; for expansion of culture (proliferation): TMD8, single 1 μM dose, 12 days, result in words
Excerpt: as §1, §2

OCI-Ly7 cells = assay: Cell proliferation, trypan blue cell count; conditions: for expansion of culture (proliferation): OCI-Ly7, single 1 μM dose, 12 days, result in words; for Viable cell count: second block headed OCI-Ly1, Day 0, Mepazine at 1 µM
Excerpt: as §1, §2

OCI-Ly3 cells [2] = assay: Cell proliferation, trypan blue cell count; conditions: OCI-Ly3, single 1 μM dose, 12 days, result in words
Excerpt: as §1, §2

[3] = test system: N4BP1 cleavage in Jurkat T cells; assay: CD3/CD28-induced N4BP1 cleavage, Western blot (MALT1 protease activity); conditions: for N4BP1 cleavage in stimulated Jurkat T cells: result in words; for N4BP1 cleavage ratio: Jurkat T cells, 1 μM pretreatment, + CD3/CD28
Method: (§3) Western blot analysis of RelB and N4BP1 cleavage was used to test the effect of small molecules on MALT1 protease activity. To this end, 3 million Jurkat T cells were pretreated with compounds for 24 hours in serum-free media, and then 5 μM MG-132 was added for 1 hour before stimulation with CD3/CD28 (Stemcell Technologies, catalog 10971), and lysed in RIPA buffer (Millipore, catalog 20-188) with protease and phosphatase inhibitor cocktail (Pierce, catalog 78446). IKKα/β phosphorylation and IκBα phosphorylation were used as measures of MALT1 scaffolding activity, while ERK1/2 phosphorylation was used as a control. Two million Jurkat T cells were treated with 1 μM M1i-124, 1 μM M1i-124d1, or DMSO in serum-free media for 16 hours, stimulated with CD3/CD28 for 0, 5, 10, or 20 minutes, and then immediately lysed in RIPA buffer with protease and phosphatase inhibitors. For experiments evaluating RelB cleavage and phosphorylation of IκBα in TMD8 cells, cells were treated with compounds for 24 hours in media containing 5% FBS. For RelB Western blot analysis, 5 μM MG-132 (Cell Signaling Technology, catalog 2194s) was added 4 hours before lysis in RIPA lysis buffer with protease/phosphatase inhibitors.

TMD8 cells [4] = assay: IL6 and IL10 mRNA, qRT-PCR; conditions: TMD8, 1 μM; for IL6 and IL10 mRNA levels: 24 hours, result in words
Method: TMD8 cells were treated with small molecule inhibitors for 24 with cultures conditions described above except that FBS was 5%. OCI-Ly3 were treated with inhibitors in serum free media for 24 hours. Total RNA extraction from cell lines was performed using RNeasy Plus Mini Kit (Qiagen, Cat# 74136). […]
(§4) Kit. RNA was transcribed into cDNA using High-Capacity cDNA Reverse Transcription Kit (Applied Biosystems, Cat# 4368814) according to manufacturer’s instructions. RT-PCR was performed using TaqMan Universal PCR Master Mix (Applied Biosystems, Cat# 4304437) and run on a StepOnePlus Real-Time PCR machine (Applied Biosystems). The following probes from ThermoFisher Scientific were used for qRT-PCR: IL2 TaqMan probe Hs00174114, IL6 TaqMan

OCI-Ly3 cells [5] = assay: IL6 and IL10 mRNA, qRT-PCR; conditions: for IL6 and IL10 mRNA levels: OCI-Ly3, 1 μM, 24 hours, result in words; for IL6 mRNA levels (normalized) / IL10 mRNA levels (normalized): Suppl Fig. 5C
Method: Total RNA extraction from cell lines was performed using RNeasy Plus Mini Kit (Qiagen, Cat# 74136). […]
as §4

OCI-Ly3 cells [6] = assay: Cell proliferation, trypan blue cell count; conditions: Mepazine at 1 µM
[7] = test system: IL2 mRNA in Jurkat T cells; assay: IL2 mRNA induction by PMA/Iono, qRT-PCR; conditions: for IL2 mRNA (normalized): Jurkat, + PMA/Iono; for PMA/Iono-induced IL2 gene expression: pretreatment 4 hours, result in words
Method: qRT-PCR. Jurkat T cells grown in serum free media for 4 hours with indicated inhibitors prior to stimulation with PMA/Ionomycin for 4 hours. […]
Total RNA extraction from the […]
as §4

[8] = test system: BCL10 and MALT1 protein in TMD8 cells; assay: BCL10 and MALT1 protein levels, Western blot; conditions: 72 hours, result in words; for BCL10 and MALT1 protein levels: TMD8, 1 μM
Method: (§5) To test the possibility that M1i-124 destabilizes BCL10 and MALT1 within the cell as a consequence of disrupting BCL10-MALT1 interaction, we treated ABC-DLBCL cell lines (TMD8, OCI-Ly3) with M1i-124 for 72 hours and measured the cellular levels of the BCL10 and MALT1 proteins by Western blotting.
(§6) Figure 5 M1i-124 treatment leads to loss of BCL10 and MALT1 protein content in ABC-DLBCL cells. (A) Representative Western blots showing loss of BCL10 and MALT1 proteins, but not ERK1/2 protein, in TMD8 and OCI-Ly3 cells after 72 hours of treatment with 1 μM M1i-124. […] (B) Representative Western blots showing time-dependent loss of BCL10 and MALT1 in TMD8 cells treated with 1 μM M1i-124. (C) Representative Western blots showing dose-dependent loss of BCL10 and MALT1 proteins in TMD8 cells treated with […]. For A–C, band quantifications, normalized for GAPDH, are indicated below each blot. (D) Time-dependent change in BCL10 and MALT1 mRNA expression levels with 1 μM M1i-124 treatment in TMD8 cells. Statistical analysis was performed using unpaired t test between 0 hours and 72 hours (mean ± SEM; n = 3). *P < 0.05, ****P < 0.0001.

[9] = test system: BCL10 and MALT1 protein in OCI-Ly3 cells; assay: BCL10 and MALT1 protein levels, Western blot; conditions: OCI-Ly3, 1 μM, 72 hours, result in words
Method: as §5, §6

[10] = test system: IL-2 secretion from Jurkat T cells; assay: Secreted IL-2 ELISA after PMA/Iono; conditions: for IL-2: PMA/Iono; for IL-2 secretion from Jurkat T cells: result in words
Method: Cytokine ELISAs. Cytokines in cell culture supernatants were measured 20-24h after treatment with 0, 0.01, 0.03, 0.1, 0.3, 1, or 3 µM of compounds using the following ELISA kits according to the manufacturer’s instructions: Human IL-2 ELISA (BioLegend Cat# 431804), Human IL-6 ELISA (BioLegend Cat# 430504), and Human IL-10 ELISA (BioLegend Cat# 430604). […]
Jurkat T cells were pretreated with specific doses of compounds for 8 hours in serum-free media, then stimulated with PMA/ionomycin for 16 hours prior to the collection of supernatants. […]

[11] = test system: RelB cleavage in Jurkat T cells; assay: CD3/CD28-induced RelB cleavage, Western blot (MALT1 protease activity); conditions: for RelB cleavage in stimulated Jurkat T cells: result in words
Method: as §3

Row | SMILES | OCI-Ly1 Viable Cells (OCI-Ly1 cells; Day 0) | expansion of culture (proliferation) (OCI-Ly1 cells) | TMD8 Viable Cells (TMD8 cells [1]; Day 0) | expansion of culture (proliferation) (TMD8 cells [1]) | expansion of culture (proliferation) (OCI-Ly7 cells) | Viable cell count (OCI-Ly7 cells) | expansion of culture (proliferation) (OCI-Ly3 cells [2]) | N4BP1 cleavage in stimulated Jurkat T cells [3] | IL-10 mRNA (normalized) (TMD8 cells [4]) | IL6 and IL10 mRNA levels (TMD8 cells [4]) | IL6 and IL10 mRNA levels (OCI-Ly3 cells [5]) | IL6 mRNA levels (normalized) (OCI-Ly3 cells [5]) | IL10 mRNA levels (normalized) (OCI-Ly3 cells [5]) | OCI-Ly3 Viable Cells (OCI-Ly3 cells [6]; Day 0) | IL2 mRNA (normalized) ([7]; 1 μM) | PMA/Iono-induced IL2 gene expression [7] | BCL10 and MALT1 protein levels [8] | BCL10 and MALT1 protein levels [9] | IL-2 ([10]; Jurkat, 0.01uM) | IL-2 ([10]; Jurkat, 0.03uM) | also measured
1 | O=S(=O)(NCc1ccc2c(c1)OCO2)c1ccc(Cc2ccc(S(=O)(=O)NCc3ccc4c(c3)OCO4)cc2)cc1 [M1i-124] | 40000 and 20000 | no effect on expansion | 20000 | significant reduction in the expansion | no effect on expansion | 20000 and 40000 | significant reduction in the expansion | suppressed the cleavage | 0.19 and 0.23 and 0.25 and 0.2 and 0.18 and 0.32 | significantly decrease IL6 and IL10 mRNA levels | significantly decrease IL6 and IL10 mRNA levels | 0.63 and 0.57 and 0.56 and 0.54 and 0.48 and 0.61 | 0.7074 and 0.77 and 0.73 and 0.8 and 0.4913 and 0.4249 and 0.7438 | 20000 | 0.1638 and 0.218 and 0.2454 | reduction in PMA/Iono–induced IL2 gene expression | potently induced the loss of both MALT1 and BCL10 proteins | potently induced the loss of both MALT1 and BCL10 proteins | 670.787 pg/mL and 749.967 pg/mL and 766.89 pg/mL | 564.302 pg/mL and 507.452 pg/mL and 318.494 pg/mL | OCI-Ly1 Viable Cells (OCI-Ly1 cells; Day 12): 590000 and 720000 and 910000 and 860000 and 880000 and 890000; ERK1/2 protein levels ([8]; 1 μM): no change; IL-2 ([10]; Jurkat, 0.1uM): 327.873 pg/mL and 411.405 pg/mL and 266.705 pg/mL; IL-2 ([10]; Jurkat, 0.3uM): 173.693 pg/mL and 247.879 pg/mL and 193.913 pg/mL; IL-2 ([10]; Jurkat, 1uM): 222.117 pg/mL and 210.011 pg/mL and 120.037 pg/mL; IL-2 ([10]; Jurkat, 3uM): 304.615 pg/mL and 288.86 pg/mL and 235.369 pg/mL; IL-2 protein level (% of control) ([10]; PMA/Iono treated, Suppl Fig. 4A): 34.6066 % of control and 35.497 % of control and 25.5648 % of control; IL-2 secretion from Jurkat T cells [10]: dose-dependent reduction in IL-2 secretion; RelB cleavage in stimulated Jurkat T cells [11]: suppressed the cleavage
2 | COc1ccc(CNS(=O)(=O)c2ccc(Cc3ccc(S(=O)(=O)NCc4ccc(OC)cc4)cc3)cc2)cc1 [M1i-124d1] | 40000 and 20000 | no effect on expansion | 20000 | significant reduction in the expansion | no effect on expansion | 20000 and 40000 | significant reduction in the expansion | suppressed the cleavage | 0.31 and 0.33 and 0.37 and 0.53 and 0.28 and 0.52 | significantly decrease IL6 and IL10 mRNA levels | significantly decrease IL6 and IL10 mRNA levels | 0.61 and 0.76 and 0.58 and 0.67 and 0.68 | 0.5473 and 0.5 and 0.74 and 0.4125 and 0.4002 and 0.6402 | 20000 | 0.5238 and 0.3763 and 0.462 | reduction in PMA/Iono–induced IL2 gene expression | lesser effect | lesser effect | 893.077 pg/mL and 1049.97 pg/mL and 735.049 pg/mL | 736.84 pg/mL and 714.598 pg/mL and 588.162 pg/mL | N4BP1 cleavage ratio [3]: 0.7459 and 0.3808 and 0.4872 and 0.5302; OCI-Ly3 Viable Cells (OCI-Ly3 cells [6]; Day 12): 340000 and 290000 and 320000; IL-2 ([10]; Jurkat, 0.1uM): 433.515 pg/mL and 416.061 pg/mL and 330.961 pg/mL; IL-2 ([10]; Jurkat, 0.3uM): 349.469 pg/mL and 340.243 pg/mL and 270.034 pg/mL; IL-2 ([10]; Jurkat, 1uM): 458.584 pg/mL and 443.361 pg/mL and 398.637 pg/mL; IL-2 ([10]; Jurkat, 3uM): 550.731 pg/mL and 484.757 pg/mL and 435.445 pg/mL; IL-2 secretion from Jurkat T cells [10]: dose-dependent reduction in IL-2 secretion; RelB cleavage in stimulated Jurkat T cells [11]: suppressed the cleavage
3 | CN1CCCC(CN2c3ccccc3Sc3ccccc32)C1 (centres unmarked) [Mepazine, mepazine, reference compound] | 40000 and 20000 |  | 20000 |  |  | 20000 |  |  |  |  |  |  |  | 20000 |  |  | not observed | not observed |  |  | OCI-Ly1 Viable Cells (OCI-Ly1 cells; Day 7): 99000 and 98000 and 71000; OCI-Ly1 Viable Cells (OCI-Ly1 cells; Day 10): 280000 and 250000 and 290000; TMD8 Viable Cells (TMD8 cells [1]; Day 12): 830000 and 460000 and 590000; N4BP1 cleavage ratio [3]: 1.53 and 0.8223 and 0.868 and 0.8072; IL2 mRNA (normalized) ([7]; 5 μM): 0.1528 and 0.1464 and 0.1468; activity at 1 µM ([10]; Homo sapiens, Jurkat, PMA/Iono treated, 1 uM, Suppl Fig. 4A, read-out: IL-2 protein level (% of control)): 67.8%; IL-2 protein level (% of control) ([10]; PMA/Iono treated, 1 uM, Suppl Fig. 4A): 72.9318 % of control and 62.9989 % of control; Cl-RelB/FL-RelB ratio ([11]; Jurkat T cells, 1 μM pretreatment, + CD3/CD28): 0.1288 and 0.1917 and 0.1562 and 0.1166
